# Molecular target: T1, P. falciparum diadenosine tetraphosphate (Ap4A) hydrolase (PfAp4AH) (Plasmodium falciparum, UniProt C0H4F3)
# T1 construct: gene PF3D7_0520600; Full length PfAp4AH, recombinant from E. coli, His-tag removed
# T1 sequence (C0H4F3 1-152): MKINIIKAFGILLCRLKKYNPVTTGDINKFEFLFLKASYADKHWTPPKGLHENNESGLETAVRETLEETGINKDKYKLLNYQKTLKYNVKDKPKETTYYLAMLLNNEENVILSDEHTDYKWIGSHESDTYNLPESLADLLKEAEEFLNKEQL
# Test: ITC at […] °C (n = […]); also enzyme inhibition IC50 […] and thermal shift (negative ΔTm)
# Type: binding
structure (smiles),measurement,value
Cc1ccc(C(=O)Nc2ccc(S(=O)(=O)O)c3cc(S(=O)(=O)O)cc(S(=O)(=O)O)c23)cc1NC(=O)c1cccc(NC(=O)Nc2cccc(C(=O)Nc3cc(C(=O)Nc4ccc(S(=O)(=O)O)c5cc(S(=O)(=O)O)cc(S(=O)(=O)O)c45)ccc3C)c2)c1 [suramin],Kd,18.1 ± 1.1 µM
